Columns and labels:
[1] = tested on: KRAS^G12C and CDKN2A/MTAP^DEL lung tumor xenograft LU99 model; assay: LU99 lung tumor xenograft, Example 2 (MRTX7477 with or without MRTX849); conditions: MRTX7477 200 mg/kg PO BID, MRTX849 30 mg/kg PO QD
Protocol: (§1) Immunodeficient female nu/nu mice were implanted with 5×10^6 LU99 lung cancer cells in 50% Matrigel. Tumors were measured using calipers until they reached approximately 150-200 mm^3. Animals were randomized to receive A) vehicle (0.5% methylcellulose (4000 cps)/0.2% Tween80 in water), B) a PRMT5 inhibitor, C) KRAS^G12C inhibitor, or D) the PRMT5 inhibitor and KRAS^G12C inhibitor, all administered orally (PO) for 21 days. Tumor volume was measured twice a week (n=5/treatment group). Average tumor volume and standard error of the mean was calculated and plotted at each study day in GraphPad.

[2] = tested on: LU99 PRMT5-041 lung tumor xenograft model; assay: LU99 PRMT5-041 tumor xenograft, Example 3 (MRTX1719 with or without MRTX849); assay type: in vivo, mice; conditions: MRTX1719 50 mg/kg PO QD, MRTX849 30 mg/kg PO QD
Protocol: as §1

[3] = tested on: SW1573 PRMT5-044 lung tumor xenograft model; assay: SW1573 PRMT5-044 tumor xenograft, Example 4 (MRTX1719 with or without MRTX849); assay type: in vivo, mice; conditions: MRTX1719 50 mg/kg PO QD, MRTX849 100 mg/kg PO QD
Protocol: as §1

[4] = tested on: KRAS^G12C and CDKN2A/MTAP^DEL lung tumor xenograft LU99 model; assay: LU99 lung tumor xenograft, Example 1 (MRTX9768 with or without MRTX849); conditions: MRTX9768 100 mg/kg PO BID, MRTX849 30 mg/kg PO QD
Protocol: as §1

With Cn1ncc(-c2ccc3c(=O)[nH]nc(CN)c3c2)c1-c1ccc2ccccc2c1C#N [MRTX7477] the “Tumor Volume” value ([1]; Day 1) was 214.5 mm^3, the “Tumor Volume” value ([1]; Day 5) was 210.7 mm^3 and the “Tumor Volume” value ([1]; Day 8) was 177.1 mm^3. For the same compound, the “Tumor Volume” value ([1]; Day 12) was 185.3 mm^3, the “Tumor Volume” value ([1]; Day 15) was 189.1 mm^3 and the “Tumor Volume” value ([1]; Day 19) was 229.5 mm^3. The “Tumor Volume” value ([1]; Day 21) was 267.5 mm^3 and the “Tumor Volume” value ([1]; Day −2) was 129.4 mm^3.
In the case of C=C(F)C(=O)N1CCN(c2nc(OC[C@@H]3CCCN3C)nc3c2CCN(c2cccc4cccc(Cl)c24)C3)C[C@@H]1CC#N [MRTX849], the “Tumor Volume Mean” value ([2]; Day 0) is reported as 154 mm^3, the “Tumor Volume Mean” value ([2]; Day 5) is reported as 142 mm^3 and the “Tumor Volume Mean” value ([2]; Day 8) is reported as 117 mm^3. The “Tumor Volume Mean” value ([2]; Day 12) was 87 mm^3, the “Tumor Volume Mean” value ([2]; Day 15) was 81 mm^3 and the “Tumor Volume Mean” value ([2]; Day 20) was 84 mm^3. For the same compound, the “Tumor Volume Mean” value ([2]; Day 22) was 103 mm^3, the “Tumor Volume Mean” value ([3]; Day 0) was 139 mm^3 and the “Tumor Volume Mean” value ([3]; Day 3) was 150 mm^3. For the same compound, the “Tumor Volume Mean” value ([3]; Day 8) was 188 mm^3, the “Tumor Volume Mean” value ([3]; Day 10) was 236 mm^3 and the “Tumor Volume Mean” value ([3]; Day 14) was 285 mm^3. For the same compound, the “Tumor Volume Mean” value ([3]; Day 17) was 320 mm^3 and the “Tumor Volume Mean” value ([3]; Day 26) was 361 mm^3.
With Cn1ncc(-c2ccc3c(=O)[nH]nc(CN)c3c2)c1-c1c(F)cc2ccccc2c1C#N [MRTX9768] the “Tumor Volume Mean” value ([4]; Day 0) was 183.59 mm^3, the “Tumor Volume Mean” value ([4]; Day 3) was 265.26 mm^3 and the “Tumor Volume Mean” value ([4]; Day 7) was 331.80 mm^3. For the same compound, the “Tumor Volume Mean” value ([4]; Day 10) was 349.53 mm^3, the “Tumor Volume Mean” value ([4]; Day 14) was 406.58 mm^3 and the “Tumor Volume Mean” value ([4]; Day 17) was 431.91 mm^3. The “Tumor Volume Mean” value ([4]; Day 21) was 458.95 mm^3.
